Here are results for 68 compounds from article PMC6792352, “Limited Chemical Structural Diversity Found to Modulate Thyroid Hormone Receptor in the Tox21 Chemical Library” (Environmental Health Perspectives, 2019).

Counter-ions that a name gives are not always drawn. A value given as a limit tells only on which side of the number the result lay.

The first series can be described thus: in vitro. The settings on record: rat, gh3-tre-luc cells, AC50 (uM) modified / 1000.
The term CC50 denotes the concentration that lowers cell viability or growth by half. The low end stands for harm at low concentration, the high end for better tolerance by the cells. As to `C=CC[C@]1(O)CC[C@H]2[C@@H]3CCC4=CC(=O)CCC4=C3C=C[C@@]21C` [Altrenogest], the CC50 at 24 h is > 50 µM.

On to `CCN(CCCc1ccccc1)CCCc1ccccc1` [Alverine citrate], for which the 50% cytotoxic concentration (CC50) at 24 h was > 20 µM.

In the case of `Nc1ncnc(Nc2ccccc2)n1` [Amanozine], the half-maximal cytotoxic concentration (CC50) at 24 h is > 50 µM.

Turning to `NC12CC3CC(CC(C3)C1)C2` [Amantadine], the CC50 at 24 h was determined as 36.1 µM.

`N=C(N)NN=C1C=CC(=NNC(N)=S)C=C1` [Ambazone] returned a 50% cytotoxic concentration (CC50) at 24 h of 23 µM.

As to `CC[N+](CC)(CCNC(=O)C(=O)NCC[N+](CC)(CC)Cc1ccccc1Cl)Cc1ccccc1Cl` [Ambenonium chloride], the cytotoxic concentration (CC50) at 24 h is > 50 µM.

In the case of `COC(c1ccccc1)(c1ccccc1)[C@H](Oc1nc(C)cc(C)n1)C(=O)O` [Ambrisentan], the CC50 at 24 h is > 50 µM.

Regarding `Nc1c(Br)cc(Br)cc1CN[C@H]1CC[C@H](O)CC1` [Ambroxolhydrochloride], the CC50 at 24 h was > 50 µM.

For the compound `CC(=O)OCC(=O)[C@@]12OC3(CCCC3)O[C@@H]1C[C@H]1[C@@H]3CCC4=CC(=O)C=C[C@]4(C)[C@@]3(F)[C@@H](O)C[C@@]12C` [Amcinonide], the 50% cytotoxic concentration (CC50) at 24 h was > 50 µM.

With `CC1(C)S[C@@H]2[C@H](N=CN3CCCCCC3)C(=O)N2[C@H]1C(=O)O` [Amdinocillin], the CC50 at 24 h is > 50 µM.

Turning to `CCNc1nc(NC(C)C)nc(SC)n1` [Ametryn], the CC50 at 24 h is > 90 µM.

With `Nc1c(CC(=O)O)cccc1C(=O)c1ccccc1` [Amfenac sodium], the half-maximal cytotoxic concentration (CC50) at 24 h is > 50 µM.

For the compound `NCCCNCCSP(=O)(O)O` [Amifostine], the CC50 at 24 h was > 50 µM.

Turning to `NCC[C@H](O)C(=O)N[C@@H]1C[C@H](N)[C@@H](O[C@H]2O[C@H](CN)[C@@H](O)[C@H](O)[C@H]2O)[C@H](O)[C@H]1O[C@H]1O[C@H](CO)[C@@H](O)[C@H](N)[C@H]1O` [Amikacin], the half-maximal cytotoxic concentration (CC50) at 24 h was > 50 µM.

On to `N=C(N)NC(=O)c1nc(Cl)c(N)nc1N` [Amiloride hydrochloride], for which the 50% cytotoxic concentration (CC50) at 24 h is > 90 µM.

In the case of `COc1ccc(/C=C/C(=O)OCCC(C)C)cc1` [Amiloxate], the 50% cytotoxic concentration (CC50) at 24 h is > 50 µM.

Take `Cc1c(C)n(CCN(C)C)c2ccc(C(=O)OCCN(C)C)cc12` [Amindocate]: the CC50 at 24 h was 34.1 µM.

Regarding `N=C(N)S(=O)O` [Amino(imino)methanesulfinic acid], the cytotoxic concentration (CC50) at 24 h is > 90 µM.

As to `CCC1(c2ccc(N)cc2)CCC(=O)NC1=O` (centres unmarked) [Aminoglutethimide], the 50% cytotoxic concentration (CC50) at 24 h was > 50 µM.

Turning to `N=C(N)NN` [Aminoguanidine hydrochloride], the half-maximal cytotoxic concentration (CC50) at 24 h was > 90 µM.

Regarding `Nc1ccc(C(=O)NCC(=O)O)cc1` [Aminohippuric acid], the cytotoxic concentration (CC50) at 24 h was > 20 µM.

`CCN(CC)CCCC(C)Nc1cc(/C=C/c2ccccc2Cl)nc2cc(Cl)ccc12` (centres unmarked) [Aminoquinol] gave a CC50 at 24 h of 20.1 µM.

`Cc1cc(N)c2cc(NC(=O)Nc3ccc4nc(C)cc(N)c4c3)ccc2n1` [Aminoquinuride dihydrochloride] registered a CC50 at 24 h of 35 µM.

In the case of `Nc1nc(N)c(-c2ccccc2)s1` [Amiphenazole], the CC50 at 24 h is > 50 µM.

For `CN(C)CCCO[C@@H]1[C@H]2OC(C)(C)O[C@H]2O[C@@H]1[C@H](O)CO` [Amiprilose hydrochloride], the CC50 at 24 h is > 50 µM.

On to `CCN1CCCC1CNC(=O)c1cc(S(=O)(=O)CC)c(N)cc1OC` (centres unmarked) [Amisulpride], for which the CC50 at 24 h is > 50 µM.

As to `CC(=O)Nc1ccc(/C=N/NC(N)=S)cc1` [Amithiozone], the half-maximal cytotoxic concentration (CC50) at 24 h was > 50 µM.

`Nc1nc[nH]n1` [Amitrole]: the CC50 at 24 h is > 90 µM.

As for `CC(C)c1ccc2oc3nc(N)c(C(=O)O)cc3c(=O)c2c1` [Amlenanox], the CC50 at 24 h was > 50 µM.

`CCOC(=O)C1=C(COCCN)NC(C)=C(C(=O)OC)C1c1ccccc1Cl` (centres unmarked) [Amlodipine besylate] gave a half-maximal cytotoxic concentration (CC50) at 24 h of 19.7 µM.

On to `CC1(C)[C@@H](O[C@H]2O[C@H](C(=O)O)[C@@H](O)[C@H](O)[C@H]2O[C@@H]2O[C@H](C(=O)O)[C@@H](O)[C@H](O)[C@H]2O)CC[C@]2(C)[C@H]3C(=O)C=C4[C@@H]5C[C@@](C)(C(=O)O)CC[C@]5(C)CC[C@@]4(C)[C@]3(C)CC[C@@H]12` [Ammonium glycyrrhizinate trihydrate], for which the half-maximal cytotoxic concentration (CC50) at 24 h was > 70 µM.

As for `CCC1(CCC(C)C)C(=O)NC(=O)NC1=O` [Amobarbital], the CC50 at 24 h was > 90 µM.

In turn, `CCN(CC)Cc1cc(Nc2ccnc3cc(Cl)ccc23)ccc1O` [Amodiaquin dihydrochloride dihydrate] yielded a cytotoxic concentration (CC50) at 24 h of 13.5 µM.

For `CCC(C)(C)OC(=O)N[C@@H](Cc1c[nH]c2ccccc12)C(=O)N[C@@H](CCSC)C(=O)N[C@@H](CC(=O)O)C(=O)N[C@@H](Cc1ccccc1)C(N)=O` [Amogastrin], the CC50 at 24 h was > 50 µM.

Turning to `COc1cc(C(=O)OC(COCCC(C)C)CN2CCOCC2)cc(OC)c1OC` (centres unmarked) [Amoproxan], the CC50 at 24 h was > 50 µM.

As for `CCC(C)(C)c1ccc(CC(C)CN2C[C@@H](C)O[C@@H](C)C2)cc1` (some centres unmarked) [Amorolfine], the CC50 at 24 h was found to be 11.1 µM.

As for `CC1(C)S[C@@H]2[C@H](NC(=O)[C@H](N)c3ccc(O)cc3)C(=O)N2[C@H]1C(=O)O` [Amoxicillin], the 50% cytotoxic concentration (CC50) at 24 h is > 50 µM.

In turn, `CCNC(=O)N1CCN(CCCC(c2ccc(F)cc2)c2ccc(F)cc2)CC1` [Amperozide hydrochloride] yielded a 50% cytotoxic concentration (CC50) at 24 h of 19.7 µM.

In the case of `C[C@@H]1[C@H](O)[C@@H](C)/C=C/C=C/C=C/C=C/C=C/C=C/C=C/[C@H](O[C@@H]2O[C@H](C)[C@@H](O)[C@H](N)[C@@H]2O)C[C@@H]2O[C@](O)(C[C@@H](O)C[C@@H](O)[C@H](O)CC[C@@H](O)C[C@@H](O)CC(=O)O[C@H]1C)C[C@H](O)[C@H]2C(=O)O` [Amphotericin B], the CC50 at 24 h is 32.9 µM.

Consider `CC1(C)S[C@@H]2[C@H](NC(=O)[C@H](N)c3ccccc3)C(=O)N2[C@H]1C(=O)O` [Ampicillin trihydrate], for which the CC50 at 24 h is > 90 µM.

With `CCOC(=O)OC(C)OC1=C(C(=O)Nc2ccccn2)N(C)S(=O)(=O)c2ccccc21` (centres unmarked) [Ampiroxicam], the CC50 at 24 h was > 50 µM.

Regarding `CC(C)CN(C[C@@H](O)[C@H](Cc1ccccc1)NC(=O)O[C@H]1CCOC1)S(=O)(=O)c1ccc(N)cc1` [Amprenavir], the CC50 at 24 h is > 50 µM.

With `CCCc1ncc(C[n+]2ccccc2C)c(N)n1` [Amprolium hydrochloride], the CC50 at 24 h was > 20 µM.

As to `Cc1c(N)c(=O)n(-c2ccccc2)n1C` [Ampyrone], the CC50 at 24 h was > 20 µM.

`Nc1cc(-c2ccncc2)c[nH]c1=O` [Amrinone]: the CC50 at 24 h was > 90 µM.

On to `COc1cc(NS(C)(=O)=O)ccc1Nc1c2ccccc2nc2ccccc12` [Amsacrine hydrochloride], for which the midpoint of cytotoxicity, the CC50 at 24 h, lay at 0.432 µM.

`CCCCCc1ccc(C)cc1O` [Amylmetacresol]: the cytotoxic concentration (CC50) at 24 h was > 50 µM.

As to `C[N+]1(CC2COC(c3ccccc3)(c3ccccc3)O2)CCCCC1` (centres unmarked) [Anacolin], the cytotoxic concentration (CC50) at 24 h was > 50 µM.

As to `O=C1CN2Cc3c(ccc(Cl)c3Cl)N=C2N1` [Anagrelide hydrochloride], the half-maximal cytotoxic concentration (CC50) at 24 h is > 50 µM.

For the compound `CC(C)(C#N)c1cc(Cn2cncn2)cc(C(C)(C)C#N)c1` [Anastrozole], the CC50 at 24 h was > 30 µM.

As to `O=S(=O)(O)c1cc(O)c2c(/N=N/c3ccc(Nc4ccccc4)c4c(S(=O)(=O)O)cccc34)cc(S(=O)(=O)O)cc2c1` [Anazolene sodium], the CC50 at 24 h was determined as 22.8 µM.

In the case of `COc1ccc(C(O)(c2cncnc2)C2CC2)cc1` (centres unmarked) [Ancymidol], the CC50 at 24 h was > 90 µM.

`C[C@]12CCC(=O)C[C@@H]1CC[C@@H]1[C@@H]2CC[C@]2(C)C=CC[C@@H]12` [Androstenone]: the CC50 at 24 h was > 50 µM.

In the case of `CC(=O)OCC(=O)[C@@]1(O)CC[C@H]2[C@@H]3CCC4=CC(=O)CC[C@]4(C)C3=CC[C@@]21C` [Anecortave acetate], the half-maximal cytotoxic concentration (CC50) at 24 h was > 50 µM.

For `COc1ccc(-c2cc(=S)ss2)cc1` [Anethole trithione], the CC50 at 24 h is > 50 µM.

`C/C=C/c1ccc(OC)cc1` [Anethole]: the CC50 at 24 h is > 90 µM.

On to `CCCCCCCCCCCCCCCCCC(=O)OC[C@@H](O)[C@H]1OC[C@H](O)[C@H]1O` [Anhydrosorbitol stearate], for which the CC50 at 24 h is > 50 µM.

Consider `Clc1nc(Cl)nc(Nc2ccccc2Cl)n1` [Anilazine], for which the 50% cytotoxic concentration (CC50) at 24 h was > 90 µM.

In the case of `Nc1ccccc1` [Anilinium nitrate], the CC50 at 24 h was > 50 µM.

Regarding `COc1ccc(C(=O)N2CCCC2=O)cc1` [Aniracetam], the cytotoxic concentration (CC50) at 24 h was > 50 µM.

The same series, now with this note: rat, gh3-tre-luc cells, AC50 (uM) modified / 1000, Tox21_110001=Tox21_111928; viability, 1 nM T3 present, 24 h.
Turning to `CNC(=O)Oc1ccccc1C(=O)Nc1ccccc1` [Anilamate], the CC50 at 24 h was > 50 µM.

Staying with this series, now noted: rat, gh3-tre-luc cells, AC50 (uM) modified / 1000, Tox21_110001=Tox21_112495; viability, 1 nM T3 present, 24 h.
For `C[C@]12CC[C@H]3[C@@H](CC=C4C[C@@H](O)CC[C@@]43C)[C@@H]1CC[C@@H]2O` [Androstenediol], the half-maximal cytotoxic concentration (CC50) at 24 h is > 50 µM.

Still in this series, the particulars now being: rat, gh3-tre-luc cells, AC50 (uM) modified / 1000, Tox21_110001=Tox21_113313; viability, 1 nM T3 present, 24 h.
With `O=C(O)CCCCCCNC1c2ccccc2CCc2ccccc21` [Amineptine], the cytotoxic concentration (CC50) at 24 h was > 50 µM.

Staying with this series, now noted: rat, gh3-tre-luc cells, AC50 (uM) modified / 1000, Tox21_110001=Tox21_202753; viability, 1 nM T3 present, 24 h.
For `O=P(O)(O)CN(CP(=O)(O)O)CP(=O)(O)O` [Aminotrimethylene phosphonic acid], the cytotoxic concentration (CC50) at 24 h was > 20 µM.

The series is the same for the next values; noted with them: rat, gh3-tre-luc cells, AC50 (uM) modified / 1000, Tox21_110001=Tox21_300595; viability, 1 nM T3 present, 24 h.
Turning to `O=C(O)C(F)(F)C(F)(F)C(F)(F)C(F)(F)C(F)(F)C(F)(F)C(F)(F)F` [Ammonium perfluorooctanoate], the CC50 at 24 h was > 90 µM.

The series is the same for the next values; noted with them: rat, gh3-tre-luc cells, AC50 (uM) modified / 1000, Tox21_110001=Tox21_301206; viability, 1 nM T3 present, 24 h.
In the case of `COP(=S)(NC(C)C)Oc1ccc(C)cc1[N+](=O)[O-]` (centres unmarked) [Amiprofos-methyl], the CC50 at 24 h was > 90 µM.

Staying with this series, now noted: rat, gh3-tre-luc cells, AC50 (uM) modified / 1000, Tox21_110001=Tox21_301423; viability, 1 nM T3 present, 24 h.
Turning to `CNC(=O)Oc1ccc(N(C)C)c(C)c1` [Aminocarb], the half-maximal cytotoxic concentration (CC50) at 24 h was > 90 µM.

The series is the same for the next values; noted with them: rat, gh3-tre-luc cells, AC50 (uM) modified / 1000, Tox21_110001=Tox21_302509; viability, 1 nM T3 present, 24 h.
With `NC(=O)O` [Ammonium carbamate], the half-maximal cytotoxic concentration (CC50) at 24 h was > 90 µM.
